Measured values reported in patent publication US4376768A, “Benzothiazine derivative” (priority 1980, dated 1983).
Where two headings read alike, the source gives them in different places.

Columns and labels:
in vivo [1] = conditions: for selectivity ratio: rat, in vivo, po
Method: (§1) Anti-inflammatory activity was tested as follows: Male rats of the Wistar strain were used in groups of 7. A test compound was suspended in a 0.2% carboxymethyl cellulose solution and orally administered in a dose of 0.5 ml/100 g of body weight. […] Three hours after injection of carrageenin, each rat was sacrificed by ether. The feet of both hind legs were amputated at the ankle joint and weighed to detect the difference in weight between both feet. Then, the ability of the test compound to suppress the carrageenin-induced edema was evaluated by comparing the foot weight difference of the test group with that of a control group (consisting of rats to which the solvent alone was administered). Specifically, the rate of suppression of the edema was calculated according to the following equation: [formula]
The incidence of gastric disorders in rats was tested as follows: Eight-weeks-old male rats of the Wistar strain were used in groups of 5 to 7. After they were fasted for 18 hours or more, a test compound was administered orally. Six hours later, each rat was sacrificed by decapitation. The stomach was removed, filled with 10 ml of physiological saline, and then fixed in 5% formalin. After about 10 minutes, the stomach was incised through the greater curvature and the presence or absence of gastric disorders (in particular, erosion) was examined by visual observation. According to Litchfield-Wilcoxon's method, the dose causing erosion to occur in 50% of the test animals, UD50, was calculated on an all-or-none basis.

[2] = tested on: carrageenin-induced edema; experiment: Anti-inflammatory activity: suppression of carrageenin-induced edema in the rat hind foot; format: in vivo, male rats of the Wistar strain
[3] = tested on: carrageenin-induced edema; experiment: Duration of anti-inflammatory activity (carrageenin edema at varied premedication times); format: in vivo, male rats of the Wistar strain; conditions: for Rate of suppression of edema in rats premedicated at various times: Table 3, dose = ED50
Source text: The premedication time was defined as the time interval between the administration of a test compound and the injection of carrageenin.

[4] = Incidence of gastric disorders (erosion) in rats; format: in vivo, male rats of the Wistar strain; conditions: rat, in vivo, po
Source text: (§2) Six hours later, each rat was sacrificed by decapitation.

in vivo [5] = format: in vivo; conditions: mouse, in vivo; Table 1; mice, oral, 7 days; read-out: Acute toxicity, LD50
mice = experiment: in vivo; format: in vivo; conditions: Table 5; for Number of deaths / total number of test animals: p.o.; for LD50: observed for 7 days
Safety margin LD50/ED50 = conditions: for Safety margin, LD50/ED50: Table 1
Method: as §1
A test compound was suspended in a 0.2% carboxymethyl cellulose solution and orally administered in a dose of 0.1 ml/10 g of body weight. […] The LD50 value was calculated on the basis of the death rates on the final day.

[6] = prior art, in words; cited from earlier work
[7] = tested on: gastric disorders (erosion); experiment: Incidence of gastric disorders (erosion) in rats; format: in vivo, male rats of the Wistar strain; conditions: Table 1; rats, oral
Source text: as §2

[8] = in words, among the compounds of Table 1

Compound	selectivity ratio (in vivo [1])	Rate of suppression of edema in rats premedicated at various times ([3]; premedication 1 hr.)	Rate of suppression of edema in rats premedicated at various times ([3]; premedication 3 hr.)	Rate of suppression of edema in rats premedicated at various times ([3]; premedication 6 hr.)	Rate of suppression of edema in rats premedicated at various times ([3]; premedication 24 hr.)	Rate of suppression of edema in rats premedicated at various times ([3]; premedication 48 hr.)	Safety margin compared with indomethacin and diclofenac (Safety margin LD50/ED50; in words)	LD50 (mice)	also measured
Cc1cccc(NC(=O)C2C(=O)c3ccccc3S(=O)(=O)N2C)n1 (centres unmarked) [6-Methyl-2-pyridyl compound, N-(6-methyl-2-pyridyl)-3,4-dihydro-2-methyl-4-oxo-2H-1,2-benzothiazine-3-carboxamide 1,1-dioxide]	1.1								
CN1C(C(=O)Nc2cccc(Cl)n2)C(=O)c2ccccc2S1(=O)=O (centres unmarked) [Compound of formula (1), N-(6-chloro-2-pyridyl)-3,4-dihydro-2-methyl-4-oxo-2H-1,2-benzothiazine-3-carboxamide 1,1-dioxide]	30.8	55.7%	54.9%	48.3%	22.6%	9.8%	superior		inhibition in vivo at 2 mg/kg ([2]; Rattus norvegicus, po, 3 h, Table 2, 2.0 mg/kg, p.o., read-out: Rate of suppression of edema): 19.4%; inhibition in vivo at 4 mg/kg ([2]; Rattus norvegicus, po, 3 h, Table 2, 4.0 mg/kg, p.o., read-out: Rate of suppression of edema): 43.6%; inhibition in vivo at 8 mg/kg ([2]; Rattus norvegicus, po, 3 h, Table 2, 8.0 mg/kg, p.o., read-out: Rate of suppression of edema): 50.6%; inhibition in vivo at 16 mg/kg ([2]; Rattus norvegicus, po, 3 h, Table 2, 16.0 mg/kg, p.o., read-out: Rate of suppression of edema): 71%; ED50 ([2]; Rattus norvegicus, po, read-out: Dose producing 50% suppression, ED50, Table 2, carrageenin 1 h after compound, read 3 h later): 6.5 mg/kg; ED50 ([2]; Table 1, rat carrageenin edema, oral, read-out: Anti-inflammatory activity, ED50): 6.5 mg/kg; Anti-inflammatory activity ([2]; in words): potent and long-lasting; Rate of suppression of edema in rats premedicated at various times ([3]; premedication 12 hr.): 40.3%; Duration of anti-inflammatory activity ([3]; in words): excellent; TD50 at 6 h [4]: 200 mg/kg; Therapeutic index compared with indomethacin and diclofenac (in vivo [1]; in words): superior; Therapeutic index (in vivo [1]; [8]): remarkably high; LD50 at 168 h (in vivo [5]): 4000 mg/kg; Number of deaths / total number of test animals (mice; 1,000 mg/kg): 0/5; Number of deaths / total number of test animals (mice; 3,000 mg/kg): 2/5; Number of deaths / total number of test animals (mice; 5,000 mg/kg): 3/5; selectivity ratio (Safety margin LD50/ED50; in vivo, po): 615; Degree of safety (Safety margin LD50/ED50; in words): very high degree of safety; Safety margin (Safety margin LD50/ED50; [8]): remarkably high
O=C(O)Cc1ccccc1Nc1c(Cl)cccc1Cl [Diclofenac]		45.9%	24.7%	17.6%	-1.2%				
COc1ccc2c(c1)c(CC(=O)O)c(C)n2C(=O)c1ccc(Cl)cc1 [Indomethacin]	1.2	49.4%	57.6%	29.4%	-3.5%				Rate of suppression of edema in rats premedicated at various times ([3]; premedication 12 hr.): 18.8%; Safety margin, LD50/ED50 (Safety margin LD50/ED50): 3.7
Cc1cc(NC(=O)C2C(=O)c3ccccc3S(=O)(=O)N2C)no1 (centres unmarked) [Isoxicam, 3,4-dihydro-2-methyl-N-(5-methyl-3-isoxazolyl)-4-oxo-2H-1,2-benzothiazine-3-carboxamide 1,1-dioxide]						1.1%	superior	5,000 mg/kg, p.o.	Anti-inflammatory activity compared with Piroxicam and Sudoxicam [6]: lower
CN1C(C(=O)Nc2ccccn2)C(=O)c2ccccc2S1(=O)=O (centres unmarked) [Piroxicam, 3,4-dihydro-2-methyl-4-oxo-N-(2-pyridyl)-2H-1,2-benzothiazine-3-carboxamide 1,1-dioxide]				40.0%		1.7%	superior	490 mg/kg, p.o.	Anti-inflammatory activity [6]: potent and long-lasting
CN1C(C(=O)Nc2nccs2)C(=O)c2ccccc2S1(=O)=O (centres unmarked) [Sudoxicam, 3,4-dihydro-2-methyl-4-oxo-N-(2-thiazolyl)-2H-1,2-benzothiazine-3-carboxamide 1,1-dioxide]	2.3					-2.4%	superior	500 mg/kg, p.o.	Gastric disorders, UD50 [7]: 11.8 mg/kg; Anti-inflammatory activity [6]: potent and long-lasting; Degree of toxicity and incidence of gastric disorders compared with indomethacin and diclofenac [6]: not appreciably different; Therapeutic index compared with indomethacin and diclofenac (in vivo [1]; in words): superior; Safety margin, LD50/ED50 (Safety margin LD50/ED50): 98
